The text below walks through data of patent US10513519B2, “Solid forms of (1S,4S)-4-(2-(((3S,4R)-3-fluorotetrahydro-2H-pyran-4-yl)amino)-8-((2,4,6-trichlorophenyl)amino)-9H-purin-9-yl)-1-methylcyclohexane-1-carboxamide and methods of their use” (Signal Pharmaceuticals, LLC, priority 2016, dated 2019).

The test system of assay [1] is cancer cell lines. The assay can be described thus: Multiplexed cytotoxicity assay: apoptosis (activated caspase-3 induction). It is filed as cell-based. The following applies: KLE, Female GU, Uterus; 72 h. On the procedure:
Cells are grown in RPMI1640, 10% FBS, 2 mM L-alanyl-L-Glutamine, 1 mM Na pyruvate or a special medium in a humidified atmosphere of 5% CO2 at 37° C. Cells are seeded into 384-well plates and incubated in a humidified atmosphere of 5% CO2 at 37° C. Compounds are added 24 h post cell seeding. At the same time, a time zero untreated cell plate is generated. After a 72 hour incubation period, cells are fixed and stained with fluorescently labeled antibodies and nuclear dye to allow visualization of nuclei, apoptotic cells and mitotic cells. Apoptotic cells are detected using an anti-active caspase-3 antibody. Mitotic cells are detected using an anti phospho-histone-3 antibody. […] Automated fluorescence microscopy was carried out using a Molecular Devices ImageXpress Micro XL high-content imager, and images are collected with a 4× objective. […]
In another experiment, cells were grown in RPMI1640, 10% FBS, 2 mM L-alanyl-L-Glutamine, 1 mM Na pyruvate or a special medium in a humidified atmosphere of 5% CO2 at 37° C. […] Apoptotic cells were detected using an anti-active caspase-3 antibody. Mitotic cells were detected using an anti phospho-histone-3 antibody. […] Automated fluorescence microscopy was carried out using a Molecular Devices ImageXpress Micro XL high-content imager, and images were collected with a 4× objective. […]

Assay [2] relates to PD-L1 in HOP62, KARPAS-299, and LOX-IMVI. The assay can be described thus: PD-L1 expression by Western blot. The assay is classed as cell-based. The following applies: HOP62, KARPAS-299, and LOX-IMVI (BRAF V600E). As for the experimental part: The effect of Compound 1 was evaluated on PD-L1 expression levels. Cells were cultured in presence or absence of Compound 1 for indicated time before expression levels of PD-L1, DUSP4 and α-tubulin or α-actin were measured by Western blot. To detect surface levels of PD-L1, cells were treated with DMSO or Compound 1 at indicated concentrations for 48 h and cell surface expression of PD-L1 was detected using flow cytometry analysis (FACS) with an APC-labeled antibody to PD-L1 (clone 29E.1A3.; BioLegend, San Diego, Calif.). Geometric mean of PD-L1 positive cells was determined by FlowJo 10 (Treestar, Ashland, Oreg.).
Background: Immunoblotting shows a protein as a band on a membrane.

Assay [3] has as its system Colo 205 xenograft. The assay can be described thus: Colo 205 subcutaneous colorectal xenograft model. The assay is classed as in vivo, SCID mice. As for the experimental part:
For xenograft model studies human cancer cell lines were injected into SCID (severe combined immunodeficiency) mice. Cancer cell lines were propagated in culture in vitro. Tumor bearing animals were generated by injecting precisely determined numbers of cells into mice. Following inoculation of animals, the tumors were allowed to grow to a certain size prior to randomization. The mice bearing xenograft tumors ranging between pre-determined sizes were pooled together and randomized into various treatment groups. A typical efficacy study design involved administering one or more compounds at various dose levels to tumor-bearing mice. Additionally, reference chemotherapeutic agents (positive control) and negative controls were similarly administered and maintained. Tumor measurements and body weights were taken over the course of the study.
In the first experiment Compound 1 was administered orally, QD for 15 days at 0.2, 1, 5, 10, and 15 mg/kg.

Take `C[C@]1(C(N)=O)CC[C@@H](n2c(Nc3c(Cl)cc(Cl)cc3Cl)nc3cnc(N[C@@H]4CCOC[C@H]4F)nc32)CC1` [Compound 1, cis-4-[2-{[(3S,4R)-3-fluorooxan-4-yl]amino}-8-(2,4,6-trichloroanilino)-9H-purin-9-yl]-1-methylcyclohexane-1-carboxamide]: the CalX2 in assay [1] was 10 µM. The PD-L1 expression result in assay [2] is “directly inhibits PD-L1 expression”. The antitumor activity result in assay [3] (orally, QD for 15 days at 0.2, 1, 5, 10, and 15 mg/kg) is listed as “Dose-dependent antitumor activity”; in assay [3] (scheduling study (BID dosing)), “Dose-dependent antitumor activity”.
